Experimental data as given in patent US4753953A, “Pyridonecarboxylic acid derivatives and antibacterial pharmaceutical compositions thereof” (priority 1985, dated 1988).
≈ marks a conversion by molar mass, not a printed value.

What was measured:
C. ramosum = assay: MIC, in vitro antibacterial activity (standard strains); format: cell-based; settings: Thomasclavelia ramosa; 10^6 cells/ml; Gram +; read-out: MIC
[1] = system: S. aureus IID 670 (Terajima); assay: as above; format: cell-based, Staphylococcus aureus; settings: Staphylococcus aureus, IID670; 10^6 cells/ml; Gram +; read-out: MIC
[2] = system: Veillonella parvula KYA 10790; assay: as above; format: cell-based; settings: Veillonella parvula, KYA10790; 10^6 cells/ml; Gram -; read-out: MIC
[3] = system: Klebsiella pneumoniae KY(GN)6445; assay: as above; format: cell-based; settings: Klebsiella pneumoniae; 10^6 cells/ml; Gram -; read-out: MIC
[4] = system: Bacteroides fragilis GM 7000; assay: as above; format: cell-based; settings: Bacteroides fragilis, GM7000; 10^6 cells/ml; Gram -; read-out: MIC
[5] = system: Salmonella enteritidis IID 604; assay: as above; format: cell-based; settings: Salmonella enterica; 10^6 cells/ml; Gram -; read-out: MIC
B. fragilis 25285 = assay: as above; format: cell-based, Bacteroides fragilis; settings: Bacteroides fragilis, 25285; 10^6 cells/ml; Gram -; read-out: MIC
[6] = system: Staphylococcus aureus 209 P; assay: as above; format: cell-based; settings: Staphylococcus aureus, 209P; 10^6 cells/ml; Gram +; read-out: MIC
E. coli ML 4707 = assay: as above; format: cell-based, Escherichia coli; settings: Escherichia coli, ML4707, 10^6 cells/ml; Gram -; Table 1; read-out: MIC
P. maltophilia GIFU 2491 = assay: as above; format: cell-based; settings: Stenotrophomonas maltophilia, GIFU2491; 10^6 cells/ml; Gram -; read-out: MIC
B. fragilis 0558 = assay: as above; format: cell-based, Bacteroides fragilis; settings: Bacteroides fragilis, 0558; 10^6 cells/ml; Gram -; read-out: MIC
[7] = system: Eubacterium lentum GAI 5242; assay: as above; format: cell-based; settings: Eggerthella lenta, GAI5242; 10^6 cells/ml; Gram +; read-out: MIC
S. pneumoniae IID 552 = assay: as above; format: cell-based; settings: Streptococcus pneumoniae, IID552; 10^6 cells/ml; Gram +; read-out: MIC
P. cepacia GIFU 518 = assay: as above; format: cell-based; settings: Burkholderia cepacia, GIFU518
[8] = system: B. thetaiotaomicron (0661); assay: as above; format: cell-based; settings: Bacteroides thetaiotaomicron; 10^6 cells/ml; Gram -; read-out: MIC
[9] = system: Acinetobacter anitratus IID 876; assay: as above; format: cell-based; settings: Acinetobacter calcoaceticus, IID876; 10^6 cells/ml; Gram -; read-out: MIC
Pst. micros UPI 5464-1 = assay: as above; format: cell-based; settings: Parvimonas micra, UPI54641; 10^6 cells/ml; Gram +; read-out: MIC
[10] = system: Alcaligenes faecalis 0114002; assay: as above; format: cell-based; settings: Alcaligenes faecalis, 0114002; 10^6 cells/ml; Gram -; read-out: MIC
B. vulgatus KYA 29327 = assay: as above; format: cell-based; settings: Phocaeicola vulgatus, KYA29327; 10^6 cells/ml; Gram -; read-out: MIC
S. pyogenes IID 692 = assay: as above; format: cell-based, Streptococcus pyogenes; settings: Streptococcus pyogenes, IID692; 10^6 cells/ml; Gram +; read-out: MIC
[11] = system: Peptococcus magnus KY 017; assay: as above; format: cell-based; settings: Finegoldia magna, KY017; 10^6 cells/ml; Gram +; read-out: MIC
[12] = system: Fusobacterium mortiferum 4249; assay: as above; format: cell-based; settings: Fusobacterium mortiferum, 4249; 10^6 cells/ml; Gram -; read-out: MIC
E. coli ATCC 10536 = assay: as above; format: cell-based, Escherichia coli; settings: Escherichia coli, ATCC10536; 10^6 cells/ml; Gram -; read-out: MIC
[13] = system: Enterobacter cloacae IID 977; assay: as above; format: cell-based; settings: Enterobacter cloacae, IID977; 10^6 cells/ml; Gram -; read-out: MIC
P. aeruginosa IID 1210 = assay: as above; format: cell-based, Pseudomonas aeruginosa; settings: Pseudomonas aeruginosa, IID1210; 10^6 cells/ml; Gram -; read-out: MIC
C. perfringens KYA 13123 = assay: microbe, parasite or virus in culture; format: cell-based; settings: Clostridium perfringens, KYA13123
[14] = system: Proteus vulgaris IFO 3167; assay: MIC, in vitro antibacterial activity (standard strains); format: cell-based; settings: Proteus vulgaris, IFO3167; 10^6 cells/ml; Gram -; read-out: MIC
[15] = system: Yersinia enterocolitica IID 981; assay: as above; format: cell-based; settings: Yersinia enterocolitica, IID981; 10^6 cells/ml; Gram -; read-out: MIC
B. distasonis 8503 = assay: as above; format: cell-based; settings: Parabacteroides distasonis, 8503; 10^6 cells/ml; Gram -; read-out: MIC
Shigella sonnei IID 969 = assay: as above; format: cell-based; settings: Shigella sonnei, IID969; 10^6 cells/ml; Gram -; read-out: MIC
Protocol: Minimal inhibitory concentrations (MICs) were determined in accordance with the method recommended by Japan Society of Chemotherapy.

S. aureus Smith = assay: as above; format: cell-based, Staphylococcus aureus; settings: Staphylococcus aureus; 10^6 cells/ml; Gram +; read-out: MIC
F. necrophorum S-45 = assay: as above; format: cell-based; settings: Fusobacterium necrophorum, S45; 10^6 cells/ml; Gram -; read-out: MIC

Q: `CCn1cc(C(=O)O)c(=O)c2cc(F)c(N3C[C@@H](N)[C@@H](C)C3)c(F)c21` (relative stereo) [Example 22, 7-(cis-3-Amino-4-methyl-1-pyrrolidinyl)-1-ethyl-6,8-difluoro-1,4-dihydro-4-oxo-3-quinolinecarboxylic acid] was tested. Which MIC (C. ramosum) did it give?
A: 6.25 µg/mL (≈ 17.8 µM)

Q: And the MIC [1]?
A: 0.2 µg/mL (≈ 0.569 µM)

Q: And the MIC [2]?
A: 0.78 µg/mL (≈ 2.22 µM)

Q: What about the MIC [3] of the same molecule?
A: 0.05 µg/mL (≈ 0.142 µM)

Q: And the MIC [4]?
A: 3.13 µg/mL (≈ 8.91 µM)

Q: What about the MIC [5] of the same molecule?
A: 0.1 µg/mL (≈ 0.285 µM)

Q: What about the MIC (B. fragilis 25285) of the same molecule?
A: 1.56 µg/mL (≈ 4.44 µM)

Q: What about the MIC [6] of the same molecule?
A: 0.1 µg/mL (≈ 0.285 µM)

Q: What about the MIC (E. coli ML 4707) of the same molecule?
A: 0.05 µg/mL (≈ 0.142 µM)

Q: And the MIC (P. maltophilia GIFU 2491)?
A: 0.78 µg/mL (≈ 2.22 µM)

Q: What about the MIC (B. fragilis 0558) of the same molecule?
A: 1.56 µg/mL (≈ 4.44 µM)

Q: And the MIC [7]?
A: 1.56 µg/mL (≈ 4.44 µM)

Q: What about the MIC (S. pneumoniae IID 552) of the same molecule?
A: 0.78 µg/mL (≈ 2.22 µM)

Q: And the MIC (P. cepacia GIFU 518)?
A: 0.78 µg/mL (≈ 2.22 µM)

Q: What about the MIC [8] of the same molecule?
A: 3.13 µg/mL (≈ 8.91 µM)

Q: What about the MIC [9] of the same molecule?
A: 0.39 µg/mL (≈ 1.11 µM)

Q: And the MIC (Pst. micros UPI 5464-1)?
A: 0.78 µg/mL (≈ 2.22 µM)

Q: What about the MIC [10] of the same molecule?
A: 1.56 µg/mL (≈ 4.44 µM)

Q: And the MIC (B. vulgatus KYA 29327)?
A: 3.13 µg/mL (≈ 8.91 µM)

Q: What about the MIC (S. pyogenes IID 692) of the same molecule?
A: 0.78 µg/mL (≈ 2.22 µM)

Q: And the MIC [11]?
A: 1.56 µg/mL (≈ 4.44 µM)

Q: What about the MIC [12] of the same molecule?
A: 1.56 µg/mL (≈ 4.44 µM)

Q: And the MIC (E. coli ATCC 10536)?
A: 0.05 µg/mL (≈ 0.142 µM)

Q: What about the MIC [13] of the same molecule?
A: 0.1 µg/mL (≈ 0.285 µM)

Q: What about the MIC (P. aeruginosa IID 1210) of the same molecule?
A: 6.25 µg/mL (≈ 17.8 µM)

Q: What about the MIC (C. perfringens KYA 13123) of the same molecule?
A: 0.78 µg/mL (≈ 2.22 µM)

Q: What about the MIC [14] of the same molecule?
A: 0.05 µg/mL (≈ 0.142 µM)

Q: And the MIC [15]?
A: 0.1 µg/mL (≈ 0.285 µM)

Q: And the MIC (B. distasonis 8503)?
A: 3.13 µg/mL (≈ 8.91 µM)

Q: And the MIC (Shigella sonnei IID 969)?
A: 0.1 µg/mL (≈ 0.285 µM)

Q: What about the MIC (S. aureus Smith) of the same molecule?
A: 0.2 µg/mL (≈ 0.569 µM)

Q: What about the MIC (F. necrophorum S-45) of the same molecule?
A: 3.13 µg/mL (≈ 8.91 µM)
